# Measured values as given in patent publication US11331319B2, “Combination treatment for neuropsychiatric disorders” (UNIVERSITY OF MASSACHUSETTS, priority 2017, dated 2022).
# Assays:
# [1] = tested on: N-methyl-D-aspartate receptor (NMDAR); details: cited from earlier work; for Limitation: efficacy / Limitation: toxicity / therapeutic window: Table 3; for Finding: schizophrenia treatment
# [2] = underlying neurologic disorders, co-administration of levodopa and sapropterin; cited from earlier work
# [3] = over-the-counter nutrition supplement; cited from earlier work
# [4] = tested on: young adults with uncomplicated type 1 diabetes; details: 7000 mg per day, one week; cited from earlier work
# [5] = tested on: patients with schizophrenia; assay: 16-week adjunctive minocycline clinical trial: SANS and PANSS; assay type: in vivo, human; details: minocycline 200 mg per day added to risperidone, N = 27, week 16 value minus baseline value, mean
# Source text: Adult patients with schizophrenia were recruited from the 1st Affiliated Hospital of Kunming Medical University, and the Mental Health Center of Yunnan Province, China, between June 2010 and November 2011. The diagnosis of schizophrenia was made by trained clinical interviewers using the structured clinical interview for DSM-IV diagnosis (SCID). First et al., In: Structured Clinical interview for DSM-IV Axis I Disorders-Clinician Version (SCID-CV). Washington, D.C.: American Psychiatry Press. (1996). Other inclusion criteria included: (1) age 18 to 40 years old; (2) disease duration ≤5 years; (3) on stable dose of risperidone for at least 4 weeks prior to screening; (4) a stable living arrangement. Exclusion criteria were: (1) being allergic to minocycline or tetracycline; (2) a psychiatric diagnosis other than schizophrenia (determined by SCID); (3) serious, unstable medical conditions; (4) diagnosis of diabetes mellitus; (4) female patients who were planning to become pregnant, or were pregnant or lactating were also excluded from the study. The study was approved by the ethics committee of the 1st Affiliated Hospital of Kunming Medical University.
# (§1) After screening, each eligible subject underwent baseline assessments including the Scale for the Assessment of Negative Symptoms (SANS), the Positive and Negative Syndrome Scale (PANSS), and blood draw for lab tests. Andreasen N C., “Negative symptoms in schizophrenia: Definition and reliability” Arch. Gen. Psychiatry 39:784-788 (1982); and Kay et al., “The positive and negative syndrome scale (PANSS) for schizophrenia” Schizophr. Bull. 13:261-276 (1987). Subjects continued to take risperidone at the same dose throughout the study, and were randomized in a 1:1 ratio to receive either minocycline (200 mg per day) or placebo for 16 weeks. At week 16, baseline assessments were repeated.
# Statistical analysis was performed using SPSS (version 24.0, IBM Corp, Armonk, N.Y.). Descriptive statistics were performed to summarize demographic and clinical characteristics of the study sample. Group comparisons were performed using the independent t test for continuous variables, and the Fisher exact test or Chi-square test for categorical variables. Analysis of covariance (ANCOVA) was used to compare change scores from baseline to week 16 between the two treatment groups controlling for baseline scores and potential confounding variables. For all analyses, a p value less than 0.05 (2-tailed) was used for statistical significance.
# [6] = Body mass index (minocycline trial); assay type: in vivo, human; details: minocycline 200 mg per day, N = 27; week 16 value minus baseline value; mean
# Source text: as §1
# (§2) Anthropometric measures included weight, height and body mass index (BMI). Blood samples were obtained 11 h (±1 h) after the completion of the last meal the night before. Subjects were allowed to drink water during the fasting period. Laboratory assays for plasma levels of TNFα, and IL-1β were performed using the enzyme-linked immunosorbent assay (ELISA) (Bender Med Systems GmbH Campus Vienna Biocenter 2 A-1030 Vienna, Austria, Europe). Plasma levels of NO metabolites (nitrites and nitrates) were measured using the Griess method (Cortas & Wakid 1990) (Nanjing Jiancheng Bioengineering Institute, China).
# (§3) Statistical analysis was performed using SPSS (version 24.0, IBM Corp, Armonk, N.Y.). […]
# [7] = cited from earlier work
# TNFα = assay: Plasma TNFα by ELISA (minocycline trial); assay type: in vivo, human; details: minocycline 200 mg per day, N = 27; fasting plasma; week 16 value minus baseline value; mean; listed as Minocycline
# Source text: as §1, §2, §3
# [8] = tested on: NO metabolites (nitrites and nitrates); assay: Plasma levels of NO metabolites, Griess method (minocycline trial); assay type: in vivo, human; details: minocycline 200 mg per day, N = 27, fasting plasma, week 16 value minus baseline value, mean
# Source text: as §1, §2, §3
# IL-1β = assay: Plasma IL-1β by ELISA (minocycline trial); assay type: in vivo, human; details: minocycline 200 mg per day, N = 27; fasting plasma; week 16 value minus baseline value; mean; listed as Minocycline
# Source text: as §1, §2, §3
smiles,measurement,setting,value
N[C@@H]1CONC1=O [D-Cycloserine],Limitation: efficacy,[1],Decrease in efficacy over time
same,Limitation: toxicity / therapeutic window,[1],Very narrow therapeutic window
same,Finding,[1],Inconsistent finding; improvement
CCCCCNCC(N)=O [Milacemide],Finding,[1],No significant clinical benefit
N[C@H](CO)C(=O)O [D-Serine],Limitation: toxicity / therapeutic window,[1],Nephrotoxicity
same,Finding,[1],Improvement in overall
C[C@H](O)[C@H](O)[C@H]1CNc2nc(N)[nH]c(=O)c2N1 [sapropterin],"Patients who experienced confusions, exacerbation of convulsions, over-stimulation, or irritability",[2],3 patients
CNCC(=O)O [Sarcosine],Finding,[1],Improvment in overall
N=C(N)NCCC[C@H](N)C(=O)O [L-arginine],Safety and tolerability,[3],considered safe and well tolerated in general
same,Effect of supplementation,[4],"improved oxidative stress status, increased blood flow and exercise responses"
CN(C)c1ccc(O)c2c1C[C@H]1C[C@H]3[C@H](N(C)C)C(O)=C(C(N)=O)C(=O)[C@@]3(O)C(O)=C1C2=O [minocycline],"PANSS general psychopathology score, week 16 change",[5],−14.5
same,"PANSS negative symptom score, week 16 change",[5],−10.8±5.9
same,"PANSS positive symptom score, week 16 change",[5],−8.5
same,"PANSS total score, week 16 change",[5],−32.9±17.1
same,"SANS total score, week 16 change",[5],−31.2±25.5
same,"PANSS negative symptom score, week 16 change",[5]; listed as Minocycline,−10.8
same,"PANSS total score, week 16 change",[5]; listed as Minocycline,−32.9
same,"SANS total score, week 16 change",[5]; listed as Minocycline,−31.2
same,"BMI, week 16 change",[6],1.98 kg/m^2
same,Tolerability,[7]; in humans,well tolerated in humans
same,Oral bioavailability,"[7]; in vivo, po",high oral bioavailability
same,"TNF-α plasma level, week 16 change",TNFα,-0.97 pg/mL
same,"Nitric oxide (plasma levels of NO metabolites), week 16 change",[8],-8.19 ± 18.09 µmol/L
same,"Nitric oxide (plasma levels of NO metabolites), week 16 change",[8]; listed as Minocycline,-8.19 µmol/L
same,"IL-1β plasma level, week 16 change",IL-1β,-0.99 pg/mL
C[C@@H](N)C(=O)O [D-Alanine],Finding,[1],Improvement in overall
NCC(=O)O [Glycine],Limitation: efficacy,[1],High doses required to reach therapeutic effects
same,Finding,[1],Improvement in overall
